These results are taken from US20070077308A1, “CONTINUOUS MULTI-MICROENCAPSULATION PROCESS FOR IMPROVING THE STABILITY AND STORAGE LIFE OF BIOLOGICALLY ACTIVE INGREDIENTS” (priority 2003, published 2007).

The nature of this data set: Storage stability of microencapsulated fish oil fatty acids. The class given is physicochemical. An excerpt: We have performed tests of storage ability while remaining the active ingredients unchanged.

The structures appear in SMILES notation.

As to `CCCCCCCCCCCCCCCC(=O)O` [Palmitic acid], the “% in the oil” value was determined as 1.1 % in the oil (d = 0); 1.1 % in the oil (d = 30, 4° C.); 1.1 % in the oil (d = 30, 25° C.); 1.1 % in the oil (d = 30, 45° C.); 1.1 % in the oil (d = 60, 45° C.).
Take `CCCCCCCCCCCCCCCCCC(=O)O` [Stearic acid]: the “% in the oil” value (d = 0) stood at 1.4 % in the oil; the “% in the oil” value (d = 30, 4° C.) is 1.4 % in the oil; the “% in the oil” value (d = 30, 25° C.) is given as 1.4 % in the oil; the “% in the oil” value (d = 30, 45° C.) came to 1.3 % in the oil; the “% in the oil” value (d = 60, 45° C.) is 1.3 % in the oil.
Take `CC/C=C\C/C=C\C/C=C\CCCCCCCC(=O)O` [alpha-linolenic acid]: the “% in the oil” value (d = 0) is reported as 2.7 % in the oil; the “% in the oil” value (d = 30, 4° C.) was 2.5 % in the oil; the “% in the oil” value (d = 30, 25° C.) worked out at 2.6 % in the oil; the “% in the oil” value (d = 30, 45° C.) worked out at 2.5 % in the oil; the “% in the oil” value (d = 60, 45° C.) amounted to 2.4 % in the oil.
For `CCCCC/C=C\C/C=C\CCCCCCCC(=O)O` [linoleic acid], the “% in the oil” value (d = 0) came out at 2.8 % in the oil; the “% in the oil” value (d = 30, 4° C.) was found to be 2.6 % in the oil; the “% in the oil” value (d = 30, 25° C.) is recorded as 2.6 % in the oil; the “% in the oil” value (d = 30, 45° C.) turned out to be 2.5 % in the oil; the “% in the oil” value (d = 60, 45° C.) is given as 2.5 % in the oil.
Regarding `CCCCCCCC/C=C\CCCCCCCC(=O)O` [oleic acid], the “% in the oil” value is listed as 2.9 % in the oil (d = 0); 2.7 % in the oil (d = 30, 4° C.); 2.6 % in the oil (d = 30, 25° C.); 2.6 % in the oil (d = 30, 45° C.); 2.4 % in the oil (d = 60, 45° C.).
